Columns and labels:
wheat = test: Test Example 4: effect on crop by soil treatment (symbol e); type: in vivo; settings: for e: wheat, effect grade on crop: 320 g/ha; for e: wheat, effect on crop grade / e (wheat) effect on crop grade: application herbicide amount 320 g/ha
In short: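 Diluvial soil (sterilized) in boxes; seeds placed spot-wise alongside weed species; ~1.5 cm covering soil. Greenhouse, 25–30° C.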

Stellaria media = test: Test Example 4: herbicidal effect by soil treatment (symbol P); type: in vivo
In short: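 Seeds were sown in sterilized diluvial soil, covered with about 1.5 cm of soil, and the soil surface was sprayed with a water-diluted emulsion of the compound at a predetermined rate. Plants grew in a greenhouse at 25° C. to 30° C.; effects were scored visually 3 weeks after application.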

[1] = application herbicide amount 320 g/ha

Row | SMILES | e: wheat, effect on crop grade (wheat) | P: Stellaria media, herbicidal effect grade (Stellaria media; [1]) | further results
1 | CON=C(C)CC1CC(OC(=O)N(C)c2ccccc2)=C(c2c(C)cc(C)cc2C)C1=O (stereo not drawn) [1-159] |  |  | e: wheat, effect grade on crop (wheat): 1 (Herbicidal ratio of 5% or higher and lower than 20%); P: Stellaria media, herbicidal effect grade (Stellaria media; 320 g/ha): 0 (Herbicidal ratio of 5% or lower (almost no effect))
2 | COCCOC(=O)OC1=C(c2c(C)cc(C)cc2C)C(=O)C(CC(C)=NOC)C1 (stereo not drawn) [1-147] |  |  | e: wheat, effect grade on crop (wheat): 5 (Herbicidal ratio of 90% or more (almost completely withered)); P: Stellaria media, herbicidal effect grade (Stellaria media; 320 g/ha): 2 (Herbicidal ratio of 20% or higher and lower than 40%)
3 | CON=C(C)CC1CC(O)=C(c2c(C)cc(-c3ccc(C(F)(F)F)cc3)cc2C)C1=O (mixture of isomers) [6-016] | 0 (Herbicidal ratio of 5% or lower (almost no effect)) | 0 (Herbicidal ratio of 5% or lower (almost no effect)) | 
4 | CCCC(=O)CC1CC(O)=C(c2c(C)cc(C)cc2C)C1=O (stereo not drawn) [2-021] | 0 (Herbicidal ratio of 5% or lower (almost no effect)) | 0 (Herbicidal ratio of 5% or lower (almost no effect)) | 
5 | CON=C(C)CC1CC(OC(=O)N2CCN(C)CC2)=C(c2c(C)cc(C)cc2C)C1=O (stereo not drawn) [1-152] |  |  | e: wheat, effect grade on crop (wheat): 0 (Herbicidal ratio of 5% or lower (almost no effect)); P: Stellaria media, herbicidal effect grade (Stellaria media; 320 g/ha): 0 (Herbicidal ratio of 5% or lower (almost no effect))
6 | Cc1cc(C)c(C2=C(O)CC(CC(=O)C(C)C)C2=O)c(C)c1 (stereo not drawn) [2-016] | 0 (Herbicidal ratio of 5% or lower (almost no effect)) |  | 
7 | CCC(C)C(=O)CC1CC(O)=C(c2c(C)cc(C)cc2C)C1=O (stereo not drawn) [2-024] | 0 (Herbicidal ratio of 5% or lower (almost no effect)) | 0 (Herbicidal ratio of 5% or lower (almost no effect)) | 
8 | CCc1cc(-n2cc(Cl)cn2)cc(C)c1C1=C(O)CC(CC(C)=NOC)C1=O (mixture of isomers) [6-005] | 4 (Herbicidal ratio of 70% or higher and lower than 90%) | 0 (Herbicidal ratio of 5% or lower (almost no effect)) | 
9 | CCC(=O)CC1CC(O)=C(c2c(C)cc(C)cc2C)C1=O (stereo not drawn) [2-006] | 0 (Herbicidal ratio of 5% or lower (almost no effect)) | 0 (Herbicidal ratio of 5% or lower (almost no effect)) | 
10 | CON=C(C)CC1CC(O)=C(c2c(C)cc(-c3ccc(Cl)cc3)cc2C)C1=O (mixture of isomers) [6-029] | 4 (Herbicidal ratio of 70% or higher and lower than 90%) |  | 
11 | CON=CC1CC(O)=C(c2c(C)cc(C)cc2C)C1=O (mixture of isomers) [3-001] | 0 (Herbicidal ratio of 5% or lower (almost no effect)) | 0 (Herbicidal ratio of 5% or lower (almost no effect)) | 
12 | CCC(CCC1CC(O)=C(c2c(C)cc(C)cc2C)C1=O)=NOC (mixture of isomers) [4-001] | 0 (Herbicidal ratio of 5% or lower (almost no effect)) |  | 
13 | CCC(=O)CCC1CC(O)=C(c2c(C)cc(C)cc2C)C1=O (stereo not drawn) [5-001] | 0 (Herbicidal ratio of 5% or lower (almost no effect)) |  | 
14 | CON=C(C)CC1CC(O)=C(c2c(C)cc(C(=O)OC)cc2C)C1=O (stereo not drawn) [6-023] | 0 (Herbicidal ratio of 5% or lower (almost no effect)) | 0 (Herbicidal ratio of 5% or lower (almost no effect)) | 
15 | CC(=O)CC1CC(OC(=O)C(C)(C)C)=C(c2c(C)cc(C)cc2C)C1=O (stereo not drawn) [2-018] | 0 (Herbicidal ratio of 5% or lower (almost no effect)) | 0 (Herbicidal ratio of 5% or lower (almost no effect)) | 
16 | CON=C(C)CC1CC(OC(=O)C(C)(C)c2ccc(Cl)cc2)=C(c2c(C)cc(C)cc2C)C1=O (stereo not drawn) [1-148] |  |  | e: wheat, effect grade on crop (wheat): 0 (Herbicidal ratio of 5% or lower (almost no effect)); P: Stellaria media, herbicidal effect grade (Stellaria media; 320 g/ha): 0 (Herbicidal ratio of 5% or lower (almost no effect))
17 | CON=C(C)CC1CC(O)=C(c2c(C)cc(-c3ccc(Cl)nc3)cc2C)C1=O (mixture of isomers) [6-035] | 0 (Herbicidal ratio of 5% or lower (almost no effect)) | 3 (Herbicidal ratio of 40% or higher and lower than 70%) | 
18 | CC#Cc1cc(C)c(C2=C(O)CC(CC(C)=NOC)C2=O)c(C)c1 (mixture of isomers) [6-009] | 5 (Herbicidal ratio of 90% or more (almost completely withered)) | 4 (Herbicidal ratio of 70% or higher and lower than 90%) | 
19 | CON=C(C)CC1CC(OC(=O)Cc2ccc(OC)cc2)=C(c2c(C)cc(C)cc2C)C1=O (stereo not drawn) [1-156] |  |  | e: wheat, effect grade on crop (wheat): 5 (Herbicidal ratio of 90% or more (almost completely withered)); P: Stellaria media, herbicidal effect grade (Stellaria media; 320 g/ha): 2 (Herbicidal ratio of 20% or higher and lower than 40%)

Row | SMILES | e: wheat, effect on crop grade (wheat) | P: Stellaria media, herbicidal effect grade (Stellaria media; [1]) | further results
20 | CCOC(=O)C(C(=O)C(F)(F)F)C1CC(O)=C(c2c(C)cc(C)cc2C)C1=O (stereo not drawn) [2-010] | 0 (Herbicidal ratio of 5% or lower (almost no effect)) | 0 (Herbicidal ratio of 5% or lower (almost no effect)) | 
21 | CCCC(=O)C(C(=O)OC)C1CC(O)=C(c2c(C)cc(C)cc2C)C1=O (stereo not drawn) [2-020] | 0 (Herbicidal ratio of 5% or lower (almost no effect)) |  | 
22 | CON=C(C)C1CC(O)=C(c2c(C)cc(C)cc2C)C1=O (mixture of isomers) [3-002] | 0 (Herbicidal ratio of 5% or lower (almost no effect)) | 0 (Herbicidal ratio of 5% or lower (almost no effect)) | 
23 | CON=C(C)CC1CC(OS(=O)(=O)CCCCl)=C(c2c(C)cc(C)cc2C)C1=O (stereo not drawn) [1-142] |  |  | e: wheat, effect grade on crop (wheat): 3 (Herbicidal ratio of 40% or higher and lower than 70%); P: Stellaria media, herbicidal effect grade (Stellaria media; 320 g/ha): 0 (Herbicidal ratio of 5% or lower (almost no effect))
24 | COCC(=O)CC1CC(O)=C(c2c(C)cc(C)cc2C)C1=O (stereo not drawn) [2-007] | 0 (Herbicidal ratio of 5% or lower (almost no effect)) | 0 (Herbicidal ratio of 5% or lower (almost no effect)) | 
25 | CON=C(C)CC1CC(OC(=O)c2ccccc2C(F)(F)F)=C(c2c(C)cc(C)cc2C)C1=O (stereo not drawn) [1-154] |  |  | e: wheat, effect grade on crop (wheat): 3 (Herbicidal ratio of 40% or higher and lower than 70%); P: Stellaria media, herbicidal effect grade (Stellaria media; 320 g/ha): 0 (Herbicidal ratio of 5% or lower (almost no effect))
26 | Cc1cc(C)c(C2=C(O)CC(CC(=O)CC3CC3)C2=O)c(C)c1 (stereo not drawn) [2-026] | 0 (Herbicidal ratio of 5% or lower (almost no effect)) |  | 
27 | C=CCOC(=O)OC1=C(c2c(C)cc(C)cc2C)C(=O)C(CC(C)=NOC)C1 (stereo not drawn) [1-146] |  |  | e: wheat, effect grade on crop (wheat): 5 (Herbicidal ratio of 90% or more (almost completely withered)); P: Stellaria media, herbicidal effect grade (Stellaria media; 320 g/ha): 1 (Herbicidal ratio of 5% or higher and lower than 20%)
28 | Cc1cc(C)c(C2=C(O)CC(CC(=O)C(C)(C)C)C2=O)c(C)c1 (stereo not drawn) [2-022] | 0 (Herbicidal ratio of 5% or lower (almost no effect)) | 0 (Herbicidal ratio of 5% or lower (almost no effect)) | 
29 | CON=C(C)CC1CC(O)=C(c2c(C)cc(-c3ccc(OC)cc3)cc2C)C1=O (mixture of isomers) [6-017] | 0 (Herbicidal ratio of 5% or lower (almost no effect)) | 0 (Herbicidal ratio of 5% or lower (almost no effect)) | 
30 | CON=C(C)CC1CC(O)=C(c2c(C)cc(C#CC3CC3)cc2C)C1=O (mixture of isomers) [6-010] | 4 (Herbicidal ratio of 70% or higher and lower than 90%) | 0 (Herbicidal ratio of 5% or lower (almost no effect)) | 
31 | COC(=O)C(C(=O)C1CC1)C1CC(O)=C(c2c(C)cc(C)cc2C)C1=O (stereo not drawn) [2-014] | 0 (Herbicidal ratio of 5% or lower (almost no effect)) | 0 (Herbicidal ratio of 5% or lower (almost no effect)) | 
32 | CON=C(C)CC1CC(OS(=O)(=O)CC[Si](C)(C)C)=C(c2c(C)cc(C)cc2C)C1=O (stereo not drawn) [1-144] |  |  | e: wheat, effect grade on crop (wheat): 0 (Herbicidal ratio of 5% or lower (almost no effect)); P: Stellaria media, herbicidal effect grade (Stellaria media; 320 g/ha): 0 (Herbicidal ratio of 5% or lower (almost no effect))
33 | CON=C(C)CC1CC(OCCSC)=C(c2c(C)cc(C)cc2C)C1=O (stereo not drawn) [1-011] |  |  | e (wheat) effect on crop grade (wheat): 0 (Herbicidal ratio of 5% or lower (almost no effect))
34 | CON=C(C)CC1CC(O)=C(c2c(C)cc(-c3ccc(C)cc3)cc2C)C1=O (mixture of isomers) [6-018] | 0 (Herbicidal ratio of 5% or lower (almost no effect)) | 0 (Herbicidal ratio of 5% or lower (almost no effect)) | 
35 | CCOC(=O)C(C(=O)c1ccccn1)C1CC(O)=C(c2c(C)cc(C)cc2C)C1=O (stereo not drawn) [2-013] | 0 (Herbicidal ratio of 5% or lower (almost no effect)) | 0 (Herbicidal ratio of 5% or lower (almost no effect)) | 
36 | CCC(=O)CCC1CC(OC)=C(c2c(C)cc(C)cc2C)C1=O (stereo not drawn) [5-002] | 0 (Herbicidal ratio of 5% or lower (almost no effect)) |  | 
37 | CON=C(C)CC1CC(OCC(=O)OC)=C(c2c(C)cc(C)cc2C)C1=O (stereo not drawn) [1-012] |  |  | e (wheat) effect on crop grade (wheat): 0 (Herbicidal ratio of 5% or lower (almost no effect))
38 | C#CCOC1=C(c2c(C)cc(C)cc2C)C(=O)C(CC(C)=NOC)C1 (stereo not drawn) [1-008] |  |  | e (wheat) effect on crop grade (wheat): 0 (Herbicidal ratio of 5% or lower (almost no effect))

Source: patent publication US11000033B2, “Ketone or oxime compound, and herbicide” (NISSAN CHEMICAL CORPORATION, priority 2014, dated 2021)
